Several values for one entry are separate records, joined by “and”; a condition that tells them apart may be missing. Equal values may be shown once. Read-outs that look alike come from different tables or passages of the source.
Key:
[1] = Method: (§1) The chromatographic conditions used are listed below.
Selected stability samples were analyzed for % peak area and molecular weights using an isocratic solution SEC assay with a refrigerated autosampler (4° C.). The chromatographic conditions used are listed below.
Solutions of 40% leuprolide acetate (w/w) in water were prepared, loaded into reservoirs, stored for two months at 80° C. and analyzed as described above.
Leuprolide acetate solutions (40% (w/w) in water) were prepared, loaded, stored at 37° C., 50° C., 65° C. or 80° C. and analyzed using RP-HPLC as described above.
Solutions of 40% leuprolide acetate (w/w) in water were prepared, loaded into reservoirs, stored at 37° C., 50° C., 65° C. or 80° C. and analyzed using RP-HPLC as described above.

[2] = 40% in water, nine months at 37° C., RP-HPLC
Method: All stability samples were analyzed for leuprolide concentration and % peak area using a gradient elution reversed-phase HPLC assay with a refrigerated autosampler (4° C.) to minimize sample degradation.

bacteria = assay: Bacteriostatic, bactericidal and sporicidal activity of leuprolide formulations; spiking with bacteria; conditions: formulations of 50-400 mg/ml
[3] = Gelation of aqueous peptide formulations on adding polar aprotic solvents such as DMSO; type: physicochemical; conditions: aqueous formulation
From the text: Thus, these solvents have an anti-gellant effect.

[4] = Stability of 40% leuprolide acetate formulations after 2.5 megarad gamma irradiation and accelerated aging, RP-HPLC and SEC; type: physicochemical; conditions: for % Leuprolide at Day 7 (RP-HPLC) / SEC Day 0 % dimer/trimer / SEC Day 0 % monomer / SEC Day 7 % dimer/trimer / SEC Day 7 % monomer: 40% in Water
Method: as §1
Formulations of 40% (w/w) as received leuprolide acetate (equivalent to 37% leuprolide free base) in water were prepared as described above and used to fill the reservoirs of drug delivery devices, also as described above. Some reservoirs were made of polymer materials, while some were titanium.
The filled devices were subjected to 2.5 megarad gamma irradiation. Samples were shipped to Sterigenics (Tustin, Calif.) and gamma irradiated (Cobalt 60) in batch mode. Samples were then subjected to accelerated aging as in Example 1. Samples labeled "cold" were shipped and irradiated on dry ice. Samples were taken at day 0 and day 7, and analyzed using RP-HPLC and SEC as described above to determine the chemical and physical stability of the irradiated formulations.

[5] = type: physicochemical; conditions: for evaporated from reservoir / % Leuprolide at Day 7: 88° C.; for evaporated from reservoir: 7 days
From the text: The reservoirs of implantable drug delivery devices (as disclosed in U.S. patent application Ser. No. 08/595,761, incorporated herein by reference) were filled with the appropriate leuprolide acetate solution. The filled devices then underwent stability testing. The formulation was filled into titanium or polymer reservoirs with a polymer plug blocking each end. The filled reservoir was then sealed in a polyfoil bag and placed in a stability testing oven. […] The chromatographic conditions used are listed below. Leuprolide standards (in water) at 4 to 6 different concentration levels, typically between 0.1-1.2 mg/mL, were run along with the stability samples. The stability samples were bracketed by the standard sets, with no more than 40 samples in between the standard sets. All peaks between the void volume and 45 minutes of the run were integrated. The integrated peak areas for the leuprolide standards were plotted as a function of the concentration. The leuprolide concentrations for the stability samples were then calculated using linear regression. The % peak areas for the leuprolide peak, the sum of all the peaks eluting before leuprolide (labeled "others"), and the sum of all the peaks eluting after leuprolide (labeled "aggregates") were also recorded and plotted as a function of the sample timepoints. Formulations of 40% (w/w) leuprolide acetate (equivalent to about 37% leuprolide free base) in either sterile distilled water, ethanol/water (70/30) or water with 10% Tween 20 were prepared as described above and used to fill the reservoirs of implantable drug delivery devices, also as described above. Some reservoirs were made of polymer materials, while some were titanium. The filled devices were subjected to accelerated aging by storing them at elevated temperatures (80-88° C.) for seven days in an incubator (Precision Scientific or Thelco). This is equivalent to about 1.5 years at 37° C. or about four years at room temperature (25° C.), assuming an activation energy (Ea) or 22.2 kcal/mole. The samples were analyzed using RP-HPLC and SEC as described above to determine the chemical and physical stability of the aged formulations.

[6] = Stability of 40-45% goserelin formulations, one month at 37° C., RP-HPLC; type: physicochemical; conditions: for % PURITY / % CONCENTRATION: 40-45% (w/w); for % CONCENTRATION: patent calls these data inconclusive
Method: (§2) Stability samples were analyzed using RP-HPLC. The area under the curve for the leuprolide peak divided by the sum of the areas under the curve of all peaks gave % purity. […] Formulations of 40-45% (w/w) goserelin in either acetate buffer, with 3% mannitol or acetate buffer with salt (0.9% NaCl) were prepared as described above and placed in polymeric containers. The containers were stored at 37° C. for one month in an incubator. The samples were analyzed using RP-HPLC to determine the chemical stability of the aged formulations.

[7] = Accelerated stability of 30% goserelin at 80° C., purity by RP-HPLC; type: physicochemical; conditions: 30% (w/w) in acetate buffer pH 5.0 with 3% mannitol, glass ampules, after 9 days
[8] = Stability of 15% nafarelin formulation, one month at 37° C., RP-HPLC; type: physicochemical; conditions: 15% (w/w), Acetate Buffer/Mannitol
Method: as §2, with “15%” for “40-45%”, “nafarelin” for “goserelin”, “in” for “in either”, “buffer” for “buffer,”, “mannitol” for “mannitol or acetate buffer with salt (0.9% NaCl)”

[9] = all Table IV formulations, after irradiation and 7 days accelerated aging
[10] = polymer reservoir, irradiated cold (on dry ice)
[11] = polymer reservoir, not irradiated
[12] = titanium reservoir, not irradiated
[13] = Acetate Buffer/Salt (0.9% NaCl)

CCNC(=O)[C@@H]1CCCN1C(=O)[C@H](CCCNC(=N)N)NC(=O)[C@H](CC(C)C)NC(=O)[C@@H](CC(C)C)NC(=O)[C@H](Cc1ccc(O)cc1)NC(=O)[C@H](CO)NC(=O)[C@H](Cc1c[nH]c2ccccc12)NC(=O)[C@H](Cc1c[nH]cn1)NC(=O)[C@@H]1CCC(=O)N1 [Leuprolide Acetate, leuprolide acetate]
chemical degradation [1]: 14.6%
activation energy (Ea) of leuprolide loss ([1]; 40% (w/w) in water, 37-80° C.): 22.2 kcal/mol
Kobs ([1]; 40% (w/w) in water, 37° C.): 7.24 × 10^-3 months^-1
t1/2 ([1]; 40% (w/w) in water, 37° C.): 95.7 months
t90 ([1]; 40% (w/w) in water, 37° C.): 13.8 months
Kobs ([1]; 40% (w/w) in water, 50° C.): 3.21 × 10^-2 months^-1
t1/2 ([1]; 40% (w/w) in water, 50° C.): 21.6 months
Kobs ([1]; 40% (w/w) in water, 65° C.): 0.111 months^-1
t1/2 ([1]; 40% (w/w) in water, 65° C.): 6.3 months
Kobs ([1]; 40% (w/w) in water, 80° C.): 0.655 months^-1
t1/2 ([1]; 40% (w/w) in water, 80° C.): 1.1 months
physical aggregation ([1]; 40% (w/w) in water, two months at 80° C.): 5.1%
leuprolide recovered ([1]; 40% (w/w) in water, two months at 80° C., RP-HPLC): 81.1%
aggregation by SEC (FIG. 2) ([1]; 40% in water, two months at 80° C., dimer and trimer only): very little aggregation
leuprolide present [2]: 88.3%
physical aggregates ("late") [2]: 3.5%
antimicrobial activity (bacteria): bacteriostatic, bactericidal and sporicidal activity
stability of samples after spiking with bacteria (bacteria): unaffected
effect of adding polar aprotic solvents such as DMSO on gelation [3]: prevents gelation
aggregate formation [4, 9]: low levels of aggregate formation
leuprolide retained, in every case [4, 9]: at least 65%
% Leuprolide at Day 7 (RP-HPLC) ([4]; polymer reservoir, irradiated): 75%
SEC Day 0 % dimer/trimer ([4]; polymer reservoir, irradiated): 1.2%
SEC Day 0 % monomer ([4]; polymer reservoir, irradiated): 90.4%
SEC Day 7 % dimer/trimer ([4]; polymer reservoir, irradiated): 3.9%
SEC Day 7 % monomer ([4]; polymer reservoir, irradiated): 80.9%
% Leuprolide at Day 7 (RP-HPLC) [4, 10]: 79%
SEC Day 0 % dimer/trimer [4, 10]: 0.2%
SEC Day 0 % monomer [4, 10]: 89.4%
SEC Day 7 % dimer/trimer [4, 10]: 3.1%
SEC Day 7 % monomer [4, 10]: 80.3%
% Leuprolide at Day 7 (RP-HPLC) [4, 11]: 75%
SEC Day 0 % dimer/trimer [4, 11]: 0.2%
SEC Day 0 % monomer [4, 11]: 99.8%
SEC Day 7 % dimer/trimer [4, 11]: 3.1%
SEC Day 7 % monomer [4, 11]: 82.4%
% Leuprolide at Day 7 (RP-HPLC) ([4]; titanium reservoir, irradiated): 83% and 81% and 73% and 79% and 74%
SEC Day 0 % dimer/trimer ([4]; titanium reservoir, irradiated): 1.1% and 0.9% and 0.8% and 0.5%
SEC Day 0 % monomer ([4]; titanium reservoir, irradiated): 98.5% and 98.8% and 99.1% and 99% and 98.6%
SEC Day 7 % dimer/trimer ([4]; titanium reservoir, irradiated): 2% and 2.4% and 3% and 3.4% and 3.6%
SEC Day 7 % monomer ([4]; titanium reservoir, irradiated): 84.9% and 94.7% and 88.3% and 94.3% and 90.9%
% Leuprolide at Day 7 (RP-HPLC) [4, 12]: 82%
SEC Day 0 % dimer/trimer [4, 12]: 0%
SEC Day 0 % monomer [4, 12]: 99.6% and 99.9%
SEC Day 7 % dimer/trimer [4, 12]: 0% and 1.9%
SEC Day 7 % monomer [4, 12]: 96.6% and 95%
evaporated from reservoir ([5]; polymer reservoir, 40% in EtOH/H2O): 60%
evaporated from reservoir ([5]; polymer reservoir, 40% in Water (sample with 66% leuprolide)): 10%
% Leuprolide at Day 7 ([5]; polymer reservoir, 40% in 10% Tween 20): 65%
% Leuprolide at Day 7 ([5]; polymer reservoir, 40% in EtOH/H2O (70/30)): 85%
% Leuprolide at Day 7 ([5]; polymer reservoir, 40% in Water): 68% and 66%
% Leuprolide at Day 7 ([5]; titanium reservoir, 40% in Water): 71%
leuprolide retained, in each case ([5]; all Table III formulations, 7 days at 80-88° C.): at least 65%

CC(C)C[C@H](NC(=O)[C@@H](COC(C)(C)C)NC(=O)[C@H](Cc1ccc(O)cc1)NC(=O)[C@H](CO)NC(=O)[C@H](Cc1c[nH]c2ccccc12)NC(=O)[C@H](Cc1cnc[nH]1)NC(=O)[C@@H]1CCC(=O)N1)C(=O)N[C@@H](CCCNC(=N)N)C(=O)N1CCC[C@H]1C(=O)NNC(N)=O [Goserelin, goserelin]
% PURITY ([6]; Acetate Buffer/Mannitol): 98.1%
% CONCENTRATION ([6]; Acetate Buffer/Mannitol): 54.2%
% PURITY [6, 13]: 98.0%
% CONCENTRATION [6, 13]: 50.1%
goserelin retained, in each case ([6]; both vehicles): at least 98%
effect of adding polar aprotic solvents such as DMSO on gelation [3]: prevents gelation
goserelin remained [7]: about 65%

calcitonin
effect of adding polar aprotic solvents such as DMSO on gelation [3]: prevents gelation

CC(C)C[C@H](NC(=O)[C@@H](Cc1ccc2ccccc2c1)NC(=O)[C@H](Cc1ccc(O)cc1)NC(=O)[C@H](CO)NC(=O)[C@H](Cc1c[nH]c2ccccc12)NC(=O)[C@H](Cc1c[nH]cn1)NC(=O)[C@@H]1CCC(=O)N1)C(=O)N[C@@H](CCCNC(=N)N)C(=O)N1CCC[C@H]1C(=O)NCC(N)=O [Nafarelin, nafarelin]
% PURITY [8]: 98.8%
nafarelin retained [8]: at least 98%
% CONCENTRATION ([8]; patent calls these data inconclusive): 18.3%
